Data published in patent publication US9353072B2, “Antimicrobial substituted thiazoles and methods of use” (Purdue Research Foundation, priority 2012, dated 2016).
≈ marks a conversion by molar mass, not a printed value. Entries after “also recorded” stand apart in the source; their conditions may differ.

Tests used:
[1] = test system: NRS194; test: MIC/MBC broth microdilution, NRS194; format: cell-based; details: Staphylococcus aureus, Table 2, read-out: Minimum Inhibitory Concentration
Experimental: (§1) Determination of minimum inhibitory concentration (MIC). The MICs of the lead thiazole compound (compound 1a) and nine derivatives tested against all 18 MRSA strains were determined, in triplicate samples, using the broth microdilution method in accordance with the recommendations contained in the CLSI guidelines.

[2] = test system: VISA HIP07256 (NRS19); test: MIC/MBC broth microdilution, NRS19 (VISA HIP07256); format: cell-based; details: Staphylococcus aureus; Table 2; VISA HIP07256; read-out: Minimum Inhibitory Concentration
Experimental: as §1

[3] = test system: murine macrophage cells (J774.A1); test: In vitro cytotoxicity analysis, MTS assay; format: cell-based; details: 16 μM, 24 hours
Experimental: In vitro cytotoxicity analysis: Compounds were assayed at concentrations of 2 μM, 4 μM, 8 μM, and 16 μM against a macrophage cell line (J774.A1) to determine the potential toxic effect in vitro. Murine macrophage cells were cultured in Dulbeco's Modified Eagle Medium (Sigma-Aldrich, St. Louis, Mo., USA) with 10% Fetal Bovine Serum (USA Scientific, Inc.) at 37° C. with 5% CO2. Controls received DMSO alone at a concentration equal to that in drug-treated cell samples. The cells were incubated with the compounds in a 96-Well Plate at 37° C. and 5.0% CO2 for 24 hours prior to addition of the assay reagent MTS 3-(4,5-dimethylthiazol-2-yl)-5-(3-carboxymethoxyphenyl)-2-(4-sulfophenyl)-2H-tetrazolium) (Promega, Madison, Wis., USA). The reagent measures the succinate dehydrogenase mitochondrial activity as an indicator of cell viability and proliferation. Corrected absorbance readings (actual absorbance readings for each treatment subtracted from background absorbance) were taken using a kinetic ELISA microplate reader (Molecular Devices, Sunnyvale, Calif., USA). The quantity of viable cells after treatment with each compound was expressed as a percentage of the control, DMSO.

[4] = test system: VRSA (VRS10); test: MIC/MBC broth microdilution, VRSA (VRS10); format: cell-based, Staphylococcus aureus; details: VRSA; for MIC: Staphylococcus aureus, Table 2, read-out: Minimum Inhibitory Concentration
Experimental: as §1

[5] = test system: MRSA USA100; test: MIC broth microdilution, MRSA USA100; format: cell-based; details: Staphylococcus aureus; Table 2; MRSA USA100; read-out: Minimum Inhibitory Concentration
Experimental: as §1

[6] = test system: MRSA USA800; test: MIC broth microdilution, MRSA USA800; format: cell-based; details: Staphylococcus aureus, Table 2, read-out: Minimum Inhibitory Concentration
Experimental: as §1

[7] = test system: MRSA ATCC 700699 (NRS1, VISA); test: MIC/MBC broth microdilution, NRS1 (ATCC 700699); format: cell-based; details: Staphylococcus aureus; Table 2; MRSA ATCC 700699; read-out: Minimum Inhibitory Concentration
Experimental: as §1

[8] = test system: MRSA NRS384 (USA300); test: MIC/MBC broth microdilution, NRS384 (USA300); format: cell-based; details: Staphylococcus aureus; Table 2; MRSA USA300; read-out: Minimum Inhibitory Concentration
Experimental: as §1

[9] = test system: NRS107; test: MIC/MBC broth microdilution, NRS107; format: cell-based; details: Staphylococcus aureus, Table 2, read-out: Minimum Inhibitory Concentration
Experimental: as §1

[10] = test system: MRSA USA200; test: MIC broth microdilution, MRSA USA200; format: cell-based; details: Staphylococcus aureus; Table 2; MRSA USA200; read-out: Minimum Inhibitory Concentration
Experimental: as §1

[11] = test system: MRSA USA500 (NRS385); test: MIC/MBC broth microdilution, NRS385 (USA500); format: cell-based; details: Staphylococcus aureus; Table 2; MRSA USA500; read-out: Minimum Inhibitory Concentration
Experimental: as §1

[12] = test system: NRS119; test: MIC/MBC broth microdilution, NRS119; format: cell-based; details: Staphylococcus aureus; Table 2; NRS119; read-out: Minimum Inhibitory Concentration
Experimental: as §1

[13] = test system: MRSA USA400 (NRS123); test: MIC/MBC broth microdilution, NRS123 (USA400); format: cell-based; details: Staphylococcus aureus; Table 2; MRSA USA400; read-out: Minimum Inhibitory Concentration
Experimental: as §1

[14] = test system: VISA LIM 3 (NRS37); test: MIC/MBC broth microdilution, NRS37 (VISA LIM 3); format: cell-based; details: Staphylococcus aureus; Table 2; VISA LIM 3; read-out: Minimum Inhibitory Concentration
Experimental: as §1

[15] = test system: NRS108; test: MIC broth microdilution, NRS108; format: cell-based; details: Staphylococcus aureus, Table 2, read-out: Minimum Inhibitory Concentration
Experimental: as §1

[16] = test system: 18 different strains of MRSA and VRSA; test: MIC broth microdilution, panel of 18 MRSA and VRSA strains (summary statements); format: cell-based, Staphylococcus aureus; details: relative to lead compound 1a; number of strains as stated in the sentence
Experimental: as §1

[17] = test system: MRSA USA700; test: MIC broth microdilution, MRSA USA700; format: cell-based; details: Staphylococcus aureus, Table 2, read-out: Minimum Inhibitory Concentration
Experimental: as §1

[18] = test system: MRSA ATCC 43300; test: MIC/MBC broth microdilution, MRSA ATCC 43300; format: cell-based, Staphylococcus aureus; details: Staphylococcus aureus; Table 2; MRSA ATCC 43300; read-out: Minimum Inhibitory Concentration
Experimental: as §1

[19] = test system: MRSA (USA300); test: Time-kill assay; format: cell-based, Staphylococcus aureus; details: 3.0×MIC
Experimental: Time-kill assay. […] Viable CFU/mL was determined by serial dilution and plating on trypticase soy agar (TSA) (Becton, Dickinson and Company, Sparks, Md., USA) plates after 0, 2, 4, 6, 8, 10, and 12 hours of incubation at 37° C. to identify the time required to reduce the bacterial cell count by 3-log10.

[20] = test system: MRSA ATCC 43300; test: Flow cytometry with LIVE/DEAD Fixable Dead Cell Stain; format: cell-based, Staphylococcus aureus; details: compound 1a at 4.0×MIC; lysostaphin positive control; 10 minutes at 37° C.
Experimental: Flow cytometry and LIVE/DEAD® Fixable Dead Cell Stain: The action of the lead compound on cell membrane permeability of MRSA was assayed using the LIVE/DEAD® Fixable Dead Cell Stain Kit (Invitrogen, Eugene, Oreg., USA) according to the manufacturer's instructions. […] Post-treatment cells were fixed with 3.7% formaldehyde; the cells were then screened with a Beckman Coulter FC500 flow cytometer.

Compound | MIC [1] [µg/mL] | MIC [2] [µg/mL] | toxicity toward murine macrophage cells [3] | MIC [4] [µg/mL] | MIC [5] [µg/mL] | MIC [6] [µg/mL] | MIC [7] [µg/mL] | MIC [8] [µg/mL] | MIC [9] [µg/mL] | MIC [10] [µg/mL] | MIC [11] [µg/mL] | MIC [12] [µg/mL] | MIC [13] [µg/mL] | MIC [14] [µg/mL] | MIC [15] [µg/mL] | improvement in the MIC value relative to the lead compound [16] | MIC [17] [µg/mL] | other results
C/C(=N\NC(=N)N)c1sc(-c2ccc(C3=CCCCC3)cc2)nc1C [Compound 7, 2-{1-[2-(4-(1-Cyclohexenyl)phenyl)-4-methylthiazol-5-yl]ethylidene}hydrazine-carboximidamide] | 0.6 (≈ 1.7 µM) | 0.6 (≈ 1.7 µM) | none were observed to be toxic | 1.3 (≈ 3.68 µM) | 1.2 (≈ 3.39 µM) | 0.6 (≈ 1.7 µM) | 0.6 (≈ 1.7 µM) | 1.2 (≈ 3.39 µM) | 0.6 (≈ 1.7 µM) | 1.2 (≈ 3.39 µM) | 1.2 (≈ 3.39 µM) | 0.6 (≈ 1.7 µM) | 0.6 (≈ 1.7 µM) | 0.6 (≈ 1.7 µM) | 2.3 (≈ 6.51 µM) | two- to four-fold improvement | – | –
C/C(=N\NC(=N)N)c1sc(-c2ccc3ccccc3c2)nc1C [Compound 1h, 2-{1-[4-Methyl-2-(naphthalen-2-yl)thiazol-5-yl]ethylidene}hydrazinecarboximid-amide] | 1.9 (≈ 5.87 µM) | 1.9 (≈ 5.87 µM) | exhibited toxicity | 0.5 (≈ 1.55 µM) | – | – | 3.8 (≈ 11.7 µM) | – | 1.9 (≈ 5.87 µM) | 1.9 (≈ 5.87 µM) | 1.9 (≈ 5.87 µM) | – | – | – | 1.9 (≈ 5.87 µM) | – | 1.9 (≈ 5.87 µM) | reduction in MIC compared to 1a against VRSA [4]: near three-fold reduction
CCCCCc1ccc(-c2nc(C)c(/C(C)=N/NC(=N)N)s2)cc1 [Compound 1d] | 1.1 (≈ 3.2 µM) | – | – | – | – | 0.5 (≈ 1.46 µM) | 0.5 (≈ 1.46 µM) | – | 0.5 (≈ 1.46 µM) | – | 1.1 (≈ 3.2 µM) | 1.1 (≈ 3.2 µM) | – | 0.5 (≈ 1.46 µM) | 1.1 (≈ 3.2 µM) | – | 1.1 (≈ 3.2 µM) | MIC [18]: 0.8 µg/mL (≈ 2.33 µM); bactericidal effect in time-kill assay ([19]; 12 hour incubation at 37° C.): bactericidal; time to eliminate MRSA completely (reduce CFU to zero) ([19]; MRSA (USA300)): within two hours
lysostaphin: positive control; disrupts the cross-linking of the pentaglycin bridges in the cell wall of staphylococci [reference compound] | – | – | – | – | – | – | – | – | – | – | – | – | – | – | – | – | – | cells stained with the dye [20]: 45%
C/C(=N\NC(=N)N)c1sc(-c2ccc(C(C)(C)C)cc2)nc1C [Compound 1g, 2-{1-[2-(4-(tert-Butyl)phenyl)-4-methylthiazol-5-yl]ethylidene}hydrazinecarboximid-amide] | 1.9 (≈ 5.77 µM) | 1.9 (≈ 5.77 µM) | exhibited toxicity | 1 (≈ 3.04 µM) | 1 (≈ 3.04 µM) | 1 (≈ 3.04 µM) | 1.9 (≈ 5.77 µM) | 1 (≈ 3.04 µM) | 1 (≈ 3.04 µM) | 1.9 (≈ 5.77 µM) | 1 (≈ 3.04 µM) | – | – | – | – | nearly two- to five-fold enhancement | – | –
CCCc1ccc(-c2nc(C)c(/C(C)=N/NC(=N)N)s2)cc1 [Compound 1c, 2-{1-[4-Methyl-2-(4-propylphenyl)thiazol-5-yl]ethylidene}hydrazinecarboximidamide] | – | 2.3 (≈ 7.29 µM) | exhibited toxicity; also recorded: toxic | – | 1.2 (≈ 3.8 µM) | 2.3 (≈ 7.29 µM) | 2.3 (≈ 7.29 µM) | 1.2 (≈ 3.8 µM) | – | 2.3 (≈ 7.29 µM) | 2.3 (≈ 7.29 µM) | 2.3 (≈ 7.29 µM) | 1.2 (≈ 3.8 µM) | 1.2 (≈ 3.8 µM) | – | – | – | –
